Measured values published in patent publication US8309765B2, “Process for manufacture of high purity D-(−)-N,N-diethyl-2-(α-naphthoxy) propionamide” (United Phosphorus Limited, priority 2007, dated 2012).
Values after ≈ are worked out from the molar mass of the structure shown.

Columns and labels:
water solubility = type: physicochemical
[1] = stability in the presence of UV radiation; type: physicochemical
certain weeds = details: cited from earlier work

| SMILES | water solubility (water solubility) | stability in the presence of UV radiation / UV light, colour change [1] | activity relative to the (L)-isomer (certain weeds; (D)-isomer vs (L)-isomer) | activity relative to the racemic mixture (certain weeds; (D)-isomer vs racemic mixture) | solubility (water solubility; water, at 20° C.) |
| --- | --- | --- | --- | --- | --- |
| CCN(CC)C(=O)[C@@H](C)Oc1cccc2ccccc12 [D-(−)-N,N-diethyl-2-(α-naphthoxy)propionamide] | 50 mg/1 ltr | stable in the presence of UV light | 8 times | 1.7-2 times |  |
| CCN(CC)C(=O)C(C)Oc1cccc2ccccc12 (racemic) [Racemic form of -(−)-N,N-diethyl-2-(α-naphthoxy)propionamide, N,N-diethyl-2-(α-naphthoxy)propionamide, reference compound] |  | decomposes in the presence of UV radiation with colour change |  |  | 73 µg/mL (≈ 269 µM) |
